Here are results for 5 molecules from ChEMBL document CHEMBL1201862, “PubChem BioAssay data set” (2004).

Assay [1] has as its target DNA damage-inducible transcript 3 protein (Mus musculus, UniProt P35639). Format: functional, Cricetulus griseus.
In another assay the test system is A-375. The assay can be described thus: proliferation inhibition in MITF-low A375 cells – cell-based, cherry-pick samples, set 2, counter-screen for MITF modulator project, dose response (AID 540335). It is filed as functional. Particulars: Homo sapiens.
Assay [2] concerns the target T1, High affinity choline transporter 1 (Homo sapiens, UniProt Q9GZV3).
T1 sequence (Q9GZV3 whole entry): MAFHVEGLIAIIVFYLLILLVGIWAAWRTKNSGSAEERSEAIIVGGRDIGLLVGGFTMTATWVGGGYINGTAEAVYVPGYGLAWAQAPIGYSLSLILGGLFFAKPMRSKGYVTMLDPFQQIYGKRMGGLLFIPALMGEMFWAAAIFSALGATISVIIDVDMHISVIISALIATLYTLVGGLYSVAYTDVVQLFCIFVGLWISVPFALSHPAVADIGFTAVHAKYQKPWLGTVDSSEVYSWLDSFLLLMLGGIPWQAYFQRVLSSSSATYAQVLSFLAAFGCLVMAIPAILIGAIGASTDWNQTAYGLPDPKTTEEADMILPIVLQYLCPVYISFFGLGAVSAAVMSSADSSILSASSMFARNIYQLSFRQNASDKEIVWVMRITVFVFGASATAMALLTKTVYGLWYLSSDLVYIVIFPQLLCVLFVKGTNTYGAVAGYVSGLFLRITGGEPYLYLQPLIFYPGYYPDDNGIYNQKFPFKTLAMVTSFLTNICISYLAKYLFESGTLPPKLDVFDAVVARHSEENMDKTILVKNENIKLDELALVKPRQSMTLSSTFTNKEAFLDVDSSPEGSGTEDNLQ
The assay is described as follows: human choline transporter blockers, potency – cell-based, 5-point CRC, membrane potential dye, dose response (AID 504840). It is filed as functional.

The next assay concerns the target Paired box protein Pax-8 (Homo sapiens, UniProt Q06710). The assay can be described thus: PAX8 transcriptional activity inhibition in RMG-I – RMG-I cells, luciferase, cherry-pick, dose response (AID 687027).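 Note: luciferase reporter driven by Pax8 target thyroperoxidase promoter measured by SteadyGlo luminescence.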 Format: functional, cell-based.
Assay [3] can be described thus: Luminescence Cell-Based Dose Response HTS to Identify Activators of Luciferase Translation or Activity in H4 […] Cells. [Related pubchem assays: 1829 (Project Summary), 1814 (Primary HTS)]. Format: functional.
Assay [4] addresses T2, Heat shock factor protein 1 (Mus musculus, UniProt P38532).
T2 sequence (P38532 whole entry): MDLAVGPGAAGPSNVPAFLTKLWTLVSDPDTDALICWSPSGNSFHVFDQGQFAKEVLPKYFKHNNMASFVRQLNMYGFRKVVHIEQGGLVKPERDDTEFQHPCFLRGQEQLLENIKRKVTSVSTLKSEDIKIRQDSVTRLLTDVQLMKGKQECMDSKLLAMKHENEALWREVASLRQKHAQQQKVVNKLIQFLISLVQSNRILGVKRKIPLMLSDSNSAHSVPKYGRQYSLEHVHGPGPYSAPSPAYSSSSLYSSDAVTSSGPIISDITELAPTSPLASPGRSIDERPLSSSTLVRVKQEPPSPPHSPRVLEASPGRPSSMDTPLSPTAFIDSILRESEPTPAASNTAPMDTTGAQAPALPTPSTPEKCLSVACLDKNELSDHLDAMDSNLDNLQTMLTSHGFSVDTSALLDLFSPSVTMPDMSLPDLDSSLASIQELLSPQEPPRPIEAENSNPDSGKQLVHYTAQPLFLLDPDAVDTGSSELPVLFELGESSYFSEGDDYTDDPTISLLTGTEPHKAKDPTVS
The assay can be described thus: decrease of HSF1-responsive luciferase luminescence – cell-based, NIH3T3, dose retest, confirmation (AID 2382).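 Note: NIH3T3 fibroblasts with HSF1-driven luciferase reporter stressed by proteasome inhibitor MG132; luminescence from HSF1-driven luciferase expression after 8 hours of MG132 stress.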 Format: functional.

Assay [5] has as its target T3, Microphthalmia-associated transcription factor (Homo sapiens, UniProt O75030).
T3 sequence (O75030 whole entry): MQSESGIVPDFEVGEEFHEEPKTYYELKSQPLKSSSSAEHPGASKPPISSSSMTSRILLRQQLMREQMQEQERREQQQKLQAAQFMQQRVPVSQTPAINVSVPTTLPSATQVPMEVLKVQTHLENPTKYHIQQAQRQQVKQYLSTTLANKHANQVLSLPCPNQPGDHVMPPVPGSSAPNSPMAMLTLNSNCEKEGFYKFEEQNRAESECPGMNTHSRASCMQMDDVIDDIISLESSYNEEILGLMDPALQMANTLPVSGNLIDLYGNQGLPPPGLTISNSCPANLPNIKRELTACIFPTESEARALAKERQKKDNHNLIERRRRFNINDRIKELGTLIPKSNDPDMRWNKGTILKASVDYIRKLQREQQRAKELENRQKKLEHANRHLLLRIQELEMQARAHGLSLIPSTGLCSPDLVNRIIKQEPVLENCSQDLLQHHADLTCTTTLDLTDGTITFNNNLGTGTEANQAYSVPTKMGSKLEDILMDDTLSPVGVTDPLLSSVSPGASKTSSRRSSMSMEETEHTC
The assay can be described thus: reducers of TRPM1 reporter luminescence, concentration series – cell-based, SK-MEL-5, cherry-picked, set 3, MITF inhibitor project, dose response (AID 493073).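 Note: SK-MEL-5 melanoma cells with luciferase driven by the MITF target TRPM1 promoter.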 It is filed as functional.

The nature of assay [6]: Luminescence Cell-Based Dose Confirmation HTS to Identify Activators of 5'UTR Stem-Loop Driven Alpha-Synuclein mRNA Translation in H4 Neuroglioblastoma Cells. [Related pubchem assays: 1829 (Project Summary), 1814 (Primary HTS)]. It is filed as functional.
The test system of another assay is H4. The assay is described as follows: Luminescence Cell-Based Dose Response HTS to Identify Activators of 5'UTR Stem-Loop Driven Prion Protein mRNA Translation in H4 Neuroglioblastoma Cells. [Related pubchem assays: 1829 (Project Summary), 1814 (Primary HTS)]. The settings on record: Homo sapiens. Format: functional.
A short description of assay [7]: Fluorescence-based cell-based high throughput dose response assay for inhibitors of the interaction of nucleotide-binding oligomerization domain containing 2 (NOD2) and the receptor-interacting serine-threonine kinase 2 (RIPK2). It is filed as functional. The settings on record: Homo sapiens.
The next assay is described as follows: cells. The settings on record: HEK-CNG. Format: functional, cell-based.
Another assay concerns the target Galanin receptor type 3 (Homo sapiens, UniProt O60755). The assay is described as follows: Fluorescence-based cell-based primary high throughput dose response assay to identify antagonists of the Galanin Receptor 3 (GalR3). Format: functional.
Assay [8] has as its target G-protein coupled receptor 55 (Homo sapiens, UniProt Q9Y2T6). The assay is described as follows: inhibition of LPI-stimulated GPR55 beta-arrestin translocation – imaging, U2OS, beta-arrestin-GFP, LPI agonist, primary screen (AID 2013).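 Note: antagonist potency measured as reduced agonist-driven arrestin aggregation.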 Format: functional.
Another assay has as its target T4, Coagulation factor XII (Homo sapiens, UniProt P00748).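 Note: activated factor XIIa alpha cleaving a fluorogenic AMC peptide substrate; inhibitor potency from loss of enzyme activity.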
T4 sequence (P00748 whole entry): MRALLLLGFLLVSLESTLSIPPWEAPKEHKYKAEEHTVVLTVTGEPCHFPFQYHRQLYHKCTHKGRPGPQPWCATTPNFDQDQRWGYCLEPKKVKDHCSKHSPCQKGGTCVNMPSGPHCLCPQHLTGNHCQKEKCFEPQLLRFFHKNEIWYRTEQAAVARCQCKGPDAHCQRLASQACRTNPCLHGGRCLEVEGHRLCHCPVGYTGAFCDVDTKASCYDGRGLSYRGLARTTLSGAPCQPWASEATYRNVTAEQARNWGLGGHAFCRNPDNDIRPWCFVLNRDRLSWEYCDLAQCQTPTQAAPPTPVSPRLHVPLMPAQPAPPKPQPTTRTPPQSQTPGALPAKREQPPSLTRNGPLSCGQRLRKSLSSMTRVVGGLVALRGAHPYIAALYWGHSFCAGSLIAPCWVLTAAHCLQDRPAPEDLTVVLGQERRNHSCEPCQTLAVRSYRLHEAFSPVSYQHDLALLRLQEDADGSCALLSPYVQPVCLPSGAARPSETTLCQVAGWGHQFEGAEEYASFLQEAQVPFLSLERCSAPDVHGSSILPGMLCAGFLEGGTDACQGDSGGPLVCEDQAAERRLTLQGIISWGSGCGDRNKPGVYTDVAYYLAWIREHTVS
Format: functional.

The next assay deals with Troponin, cardiac muscle (Homo sapiens, UniProt P19429+P45379+P63316). The assay can be described thus: Fluorescence-based biochemical high throughput dose response assay for activators of the calcium sensitivity of cardiac Regulated Thin Filaments (RTF). [Related pubchem assays (depositor defined):AID493008, AID493018, AID504382, AID504383]. Format: protein-complex assay.

Assay [9] concerns the target T5, Nucleotide-binding oligomerization domain-containing protein 2 (Homo sapiens, UniProt Q9HC29). The assay can be described thus: PubChem AID 2334. Format: functional.
Another assay concerns the target Tumor necrosis factor (Homo sapiens, UniProt P01375). The assay can be described thus: analog potency on TNFa NF-kB signaling – cell-based, revised, SAR follow-up (AID 2337). Format: functional.
Assay [10] concerns HEK293. The assay can be described thus: inhibition of NOD1-driven NF-kB reporter – cell-based, luminescence, uHTS, primary screen (AID 1578). It is filed as functional. The settings on record: Homo sapiens.
Assay [11] has as its system HEK293. The assay can be described thus: cells. It is filed as functional, cell-based. Particulars: Homo sapiens.
For assay [12], the target named is T5, Nucleotide-binding oligomerization domain-containing protein 2. The assay is described as follows: inhibition of NOD2-driven NF-kB reporter – cell-based, luminescence, uHTS, HEK293 (AID 1566). It is filed as functional.
Assay [13] concerns HEK293. The assay is described as follows: cells. Particulars: Homo sapiens.
The subject of assay [14] is HEK293. The assay can be described thus: NOD2 signaling inhibitors in MDP-stimulated cells, cell-based, uHTS, luminescence (AID 2001). Format: functional. The settings on record: Homo sapiens.
For assay [15], the system named is HEK293. The assay can be described thus: cells. Format: functional, cell-based. Particulars: Homo sapiens. The source holds these as a separate data set.
For assay [16], the target named is T6, Nucleotide-binding oligomerization domain-containing protein 1 (Homo sapiens, UniProt Q9Y239).
T6 sequence (Q9Y239 whole entry): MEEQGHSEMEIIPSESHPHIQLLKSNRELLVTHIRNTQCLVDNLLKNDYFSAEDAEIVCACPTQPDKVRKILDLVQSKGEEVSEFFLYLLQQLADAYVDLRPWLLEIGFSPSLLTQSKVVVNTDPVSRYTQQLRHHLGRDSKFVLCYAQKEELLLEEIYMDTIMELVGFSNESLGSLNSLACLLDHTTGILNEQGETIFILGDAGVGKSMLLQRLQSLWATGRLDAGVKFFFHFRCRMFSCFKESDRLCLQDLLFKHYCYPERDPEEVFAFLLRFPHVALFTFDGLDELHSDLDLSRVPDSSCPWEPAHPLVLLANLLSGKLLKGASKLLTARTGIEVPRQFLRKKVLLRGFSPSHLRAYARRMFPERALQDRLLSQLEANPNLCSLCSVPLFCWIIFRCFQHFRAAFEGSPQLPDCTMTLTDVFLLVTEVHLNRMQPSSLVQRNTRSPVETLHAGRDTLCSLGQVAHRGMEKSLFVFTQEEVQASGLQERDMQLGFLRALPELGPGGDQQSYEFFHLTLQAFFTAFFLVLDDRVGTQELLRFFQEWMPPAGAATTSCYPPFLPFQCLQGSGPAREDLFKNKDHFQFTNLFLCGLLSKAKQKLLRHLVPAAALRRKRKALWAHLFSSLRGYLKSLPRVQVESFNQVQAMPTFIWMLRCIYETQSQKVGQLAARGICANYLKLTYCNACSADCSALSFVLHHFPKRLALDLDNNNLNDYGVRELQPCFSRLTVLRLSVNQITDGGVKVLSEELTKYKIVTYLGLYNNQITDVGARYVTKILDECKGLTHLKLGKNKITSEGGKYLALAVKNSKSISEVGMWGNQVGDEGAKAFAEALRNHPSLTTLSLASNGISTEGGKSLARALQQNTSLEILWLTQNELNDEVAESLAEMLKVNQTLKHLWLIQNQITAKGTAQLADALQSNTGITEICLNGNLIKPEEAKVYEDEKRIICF
The assay is described as follows: blockers of NOD1 pathway activity – revised, SAR follow-up (AID 2333). It is filed as functional.

Assay [17] relates to HEK293. The assay can be described thus: cells. Format: functional, cell-based. The settings on record: Homo sapiens. This is another data set of the same source.

One may read the AC50 as the concentration at which the activity in the assay is half-maximal. As usually defined, the IC50 is the midpoint of a concentration-inhibition curve. By EC50 is commonly meant the concentration at which the effect is half-maximal.

Active and inactive are the calls of the source.

For `CCOc1ccc2nc(NC(=O)CSc3nc4c(c(=O)n(C)c(=O)n4C)n3C(C)C)sc2c1`, in [1], the “Absolute IC50 (CHOP)” value is 10 µM.

On to `CCCCn1c(=O)[nH]c(=O)c2c1nc(Cn1ncc(Cl)c(Cl)c1=O)n2CCC`, for which the AC50 in the assay on A-375 is 28.9 µM (active); at Paired box protein Pax-8, 6.68 µM (active); in [5], 8.12 µM (active). Further, the IC50 in assay [2] was 12.6 µM (active); in assay [7] it was 2.15 µM (active); on Galanin receptor type 3 it was > 3.32 µM (active); in [8] it was 6.1 µM (active). The EC50 in [3] was > 120 µM (not active); in assay [4], 2.89 µM (active); in assay [6] it was > 120 µM (not active); in the assay on H4, > 120 µM (not active); in “cells” it was > 29.9 µM (inactive).

Consider `CC(C)Oc1ccc(CNC(=S)N/N=C/c2ccc([N+](=O)[O-])cc2)cc1`, for which the EC50 in assay [4] is on record as > 195 µM (not active). The IC50 at Coagulation factor XII is > 50 µM (inactive). Moreover, the “Absolute IC50 (CHOP)” value in assay [1] was found to be 10 µM.

For `COCCn1c(=O)c2ccccc2c2ccccc2c1=O`, the EC50 on Troponin, cardiac muscle was > 71.5 µM (inactive).

With `Cc1c(C(=O)OCC(=O)c2c(N)n(CC(C)C)c(=O)n(C)c2=O)oc2ccccc12`, the IC50 is 14.9 µM (active) in [9]; > 20 µM (inactive) on Tumor necrosis factor; > 20 µM (inactive) in the assay with HEK293 [11]; > 20 µM (inactive) in the assay with HEK293 [13]; 19 µM (inactive) in the assay with HEK293 [14]; > 20 µM (inactive) in the assay with HEK293 [15]. Besides, the figures for the IC50 (in [16]; in the assay on HEK293 [17]) were 17.4 µM (active) and > 20 µM (inactive), respectively. In addition, the EC50 is 15.7 µM (active) in the assay with HEK293 [10] and > 20 µM (inactive) in assay [12].
